pIC50: −log10 of the molar value.
Tested on: 885512-296-R-J2-PDC complex spheroid growth, % test/control
Assay: Anticancer human tumor 885512-296-R-J2-PDC patient-derived breast carcinoma cell line growth inhibition [AhR]
Conditions: for pIC50: curve of first compound; for viability, T/C: stronger effect = lower value
Procedure, shortened: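 Spheroids combined tumor cells with HUVEC endothelial cells and human MSCs as stroma. AhR antagonists were paired with standard or investigational drugs, each dosed in half-log steps down from near clinical Cmax, or from 10 microM where Cmax was unknown.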

[1] = second compound 0.1 µM, first compound 0.0316 µM
[2] = second compound 0.1 µM, first compound 0.1 µM
[3] = second compound 0.1 µM, first compound 0.316 µM
[4] = second compound 0.1 µM, first compound 1 µM
[5] = second compound 0.316 µM, first compound 0.0316 µM
[6] = second compound 0.316 µM, first compound 0.1 µM
[7] = second compound 0.316 µM, first compound 0.316 µM
[8] = second compound 0.316 µM, first compound 1 µM
[9] = second compound 1 µM, first compound 0.0316 µM
[10] = second compound 1 µM, first compound 0.1 µM
[11] = second compound 1 µM, first compound 0.316 µM
[12] = second compound 1 µM, first compound 1 µM
[13] = second compound 3.16 µM, first compound 0.0316 µM
[14] = second compound 3.16 µM, first compound 0.1 µM
[15] = second compound 3.16 µM, first compound 0.316 µM
[16] = second compound 3.16 µM, first compound 1 µM
[17] = second compound 10 µM, first compound 0.0316 µM
[18] = second compound 10 µM, first compound 0.1 µM
[19] = second compound 10 µM, first compound 0.316 µM
[20] = second compound 10 µM, first compound 1 µM
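Further: spheroids exposed to compounds for seven days.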

CC1(C)CCC(CN2CCN(c3ccc(C(=O)NS(=O)(=O)c4ccc(NCC5CCOCC5)c([N+](=O)[O-])c4)c(Oc4cnc5[nH]ccc5c4)c3)CC2)=C(c2ccc(Cl)cc2)C1 + Cc1cncc(-c2nc(NCCc3c[nH]c4ccccc34)c3ncn(C(C)C)c3n2)c1
pIC50 (second compound 0.1 µM): 5.27
pIC50 (second compound 0.316 µM): 5.28
pIC50 (second compound 1 µM): 5.41
pIC50 (second compound 3.16 µM): > 7.50
pIC50 (second compound 10 µM): > 7.50
viability, T/C [1]: 108%
viability, T/C [2]: 120%
viability, T/C [3]: 100%
viability, T/C [4]: 97.9%
viability, T/C (second compound 0.1 µM, first compound 3.16 µM): 73%
viability, T/C (second compound 0.1 µM, first compound 10 µM): 21.9%
viability, T/C [5]: 95.8%
viability, T/C [6]: 98.3%
viability, T/C [7]: 97%
viability, T/C [8]: 100%
viability, T/C (second compound 0.316 µM, first compound 3.16 µM): 68.4%
viability, T/C (second compound 0.316 µM, first compound 10 µM): 26.2%
viability, T/C [9]: 87.5%
viability, T/C [10]: 84.5%
viability, T/C [11]: 77.8%
viability, T/C [12]: 71.8%
viability, T/C (second compound 1 µM, first compound 3.16 µM): 57%
viability, T/C (second compound 1 µM, first compound 10 µM): 23.2%
viability, T/C [13]: 42.2%
viability, T/C [14]: 49.5%
viability, T/C [15]: 50.7%
viability, T/C [16]: 41.4%
viability, T/C (second compound 3.16 µM, first compound 3.16 µM): 39.7%
viability, T/C (second compound 3.16 µM, first compound 10 µM): 29.8%
viability, T/C [17]: 12.7%
viability, T/C [18]: 13.7%
viability, T/C [19]: 14.3%
viability, T/C [20]: 12.4%
viability, T/C (second compound 10 µM, first compound 3.16 µM): 13.8%
viability, T/C (second compound 10 µM, first compound 10 µM): 10.1%

CCc1c2c(nc3ccc(O)cc13)-c1cc3c(c(=O)n1C2)COC(=O)[C@]3(O)CC + CC(CO)NC(=O)c1cc(-c2ccc(Cl)cc2)nn(-c2cnn(C)c2)c1=O
pIC50 (second compound 0.1 µM): > 9.02
pIC50 (second compound 0.316 µM): > 9.02
pIC50 (second compound 1 µM): > 9.02
pIC50 (second compound 3.16 µM): > 9.02
pIC50 (second compound 10 µM): > 9.02
viability, T/C (second compound 0.1 µM, first compound 0.000949 µM): 9.08%
viability, T/C (second compound 0.1 µM, first compound 0.003 µM): 7.28%
viability, T/C (second compound 0.1 µM, first compound 0.00949 µM): 5.78%
viability, T/C (second compound 0.1 µM, first compound 0.03 µM): 3.29%
viability, T/C (second compound 0.1 µM, first compound 0.0949 µM): 2.16%
viability, T/C (second compound 0.1 µM, first compound 0.3 µM): 1.46%
viability, T/C (second compound 0.316 µM, first compound 0.000949 µM): 8.34%
viability, T/C (second compound 0.316 µM, first compound 0.003 µM): 6.02%
viability, T/C (second compound 0.316 µM, first compound 0.00949 µM): 3.71%
viability, T/C (second compound 0.316 µM, first compound 0.03 µM): 3.2%
viability, T/C (second compound 0.316 µM, first compound 0.0949 µM): 1.99%
viability, T/C (second compound 0.316 µM, first compound 0.3 µM): 1.09%
viability, T/C (second compound 1 µM, first compound 0.000949 µM): 10.7%
viability, T/C (second compound 1 µM, first compound 0.003 µM): 7.68%
viability, T/C (second compound 1 µM, first compound 0.00949 µM): 4.79%
viability, T/C (second compound 1 µM, first compound 0.03 µM): 3.71%
viability, T/C (second compound 1 µM, first compound 0.0949 µM): 2.42%
viability, T/C (second compound 1 µM, first compound 0.3 µM): 1.92%
viability, T/C (second compound 3.16 µM, first compound 0.000949 µM): 10.8%
viability, T/C (second compound 3.16 µM, first compound 0.003 µM): 9.5%
viability, T/C (second compound 3.16 µM, first compound 0.00949 µM): 4.77%
viability, T/C (second compound 3.16 µM, first compound 0.03 µM): 4.01%
viability, T/C (second compound 3.16 µM, first compound 0.0949 µM): 2.56%
viability, T/C (second compound 3.16 µM, first compound 0.3 µM): 2.05%
viability, T/C (second compound 10 µM, first compound 0.000949 µM): 13.8%
viability, T/C (second compound 10 µM, first compound 0.003 µM): 12.5%
viability, T/C (second compound 10 µM, first compound 0.00949 µM): 6.57%
viability, T/C (second compound 10 µM, first compound 0.03 µM): 4.99%
viability, T/C (second compound 10 µM, first compound 0.0949 µM): 2.67%
viability, T/C (second compound 10 µM, first compound 0.3 µM): 2.21%

Nc1ncn(C2CC(O)C(CO)O2)c(=O)n1 (stereo not given) + CC(CO)NC(=O)c1cc(-c2ccc(Cl)cc2)nn(-c2cnn(C)c2)c1=O
pIC50 (second compound 0.1 µM): 6.10
pIC50 (second compound 0.316 µM): 6.05
pIC50 (second compound 1 µM): 6.06
pIC50 (second compound 3.16 µM): < 6.00
pIC50 (second compound 10 µM): < 6.00
viability, T/C (second compound 0.1 µM, first compound 0.00316 µM): 94.9%
viability, T/C (second compound 0.1 µM, first compound 0.01 µM): 94.5%
viability, T/C [1]: 85.5%
viability, T/C [2]: 89%
viability, T/C [3]: 76.3%
viability, T/C [4]: 43%
viability, T/C (second compound 0.316 µM, first compound 0.00316 µM): 81.8%
viability, T/C (second compound 0.316 µM, first compound 0.01 µM): 88.4%
viability, T/C [5]: 91.5%
viability, T/C [6]: 101%
viability, T/C [7]: 80.8%
viability, T/C [8]: 46.6%
viability, T/C (second compound 1 µM, first compound 0.00316 µM): 95.4%
viability, T/C (second compound 1 µM, first compound 0.01 µM): 104%
viability, T/C [9]: 90.5%
viability, T/C [10]: 92.9%
viability, T/C [11]: 77.7%
viability, T/C [12]: 46%
viability, T/C (second compound 3.16 µM, first compound 0.00316 µM): 97.8%
viability, T/C (second compound 3.16 µM, first compound 0.01 µM): 95%
viability, T/C [13]: 82.7%
viability, T/C [14]: 78.8%
viability, T/C [15]: 88.9%
viability, T/C [16]: 56.4%
viability, T/C (second compound 10 µM, first compound 0.00316 µM): 88.9%
viability, T/C (second compound 10 µM, first compound 0.01 µM): 92.5%
viability, T/C [17]: 84.1%
viability, T/C [18]: 79.7%
viability, T/C [19]: 82.3%
viability, T/C [20]: 62.1%

Reference: PubChem BioAssay AID1919006 (Molecular Pharmacology Branch, DTP, NCI, 2023)
